In article PMC7026418, “The kinase polypharmacology landscape of clinical PARP inhibitors” (Scientific Reports, 2020):
Like-named read-outs stand apart in the source and are kept apart here.

Tests used:
Assay in all cases: biochemical
Design in all cases: DiscoveRx KINOMEscan active site-directed competition binding; percent of control kinase bound to immobilised ligand
ALK(C1156Y) = ALK(C1156Y) (Homo sapiens, UniProt Q9UM73, C1156Y)
DRAK1 = target: T1, DRAK1 (Homo sapiens, UniProt Q9UEE5)
T1 construct: gene STK17A
T1 sequence (Q9UEE5 1-414): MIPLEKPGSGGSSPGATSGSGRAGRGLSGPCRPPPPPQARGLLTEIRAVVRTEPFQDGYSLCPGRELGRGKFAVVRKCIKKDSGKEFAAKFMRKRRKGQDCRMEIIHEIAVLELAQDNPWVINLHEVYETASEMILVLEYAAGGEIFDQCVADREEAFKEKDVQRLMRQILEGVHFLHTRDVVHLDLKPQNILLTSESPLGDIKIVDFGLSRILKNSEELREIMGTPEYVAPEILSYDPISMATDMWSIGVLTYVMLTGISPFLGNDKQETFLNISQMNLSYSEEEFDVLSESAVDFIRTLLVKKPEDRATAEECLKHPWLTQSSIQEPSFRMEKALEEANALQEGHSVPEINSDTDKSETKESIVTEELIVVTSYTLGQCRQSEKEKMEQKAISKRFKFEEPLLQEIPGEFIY

DRAK2 = target: T2, DRAK2 (Homo sapiens, UniProt O94768)
T2 construct: gene STK17B
T2 sequence (O94768 1-372): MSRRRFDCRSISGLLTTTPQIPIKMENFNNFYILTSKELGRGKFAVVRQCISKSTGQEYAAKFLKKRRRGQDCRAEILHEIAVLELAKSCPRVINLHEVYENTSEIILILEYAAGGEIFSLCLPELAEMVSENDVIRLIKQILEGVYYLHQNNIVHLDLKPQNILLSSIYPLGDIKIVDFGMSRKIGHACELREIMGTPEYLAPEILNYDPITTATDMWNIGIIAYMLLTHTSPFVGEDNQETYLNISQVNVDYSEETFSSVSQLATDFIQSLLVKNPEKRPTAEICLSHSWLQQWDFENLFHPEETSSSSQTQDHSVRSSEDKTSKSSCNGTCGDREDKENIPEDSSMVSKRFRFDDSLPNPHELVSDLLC

ERK5 = target: T3, ERK5 (Homo sapiens, UniProt Q13164)
T3 construct: gene MAPK7

ERK8 = target: T4, ERK8 (Homo sapiens, UniProt Q8TD08)
T4 construct: gene MAPK15
T4 sequence (Q8TD08 1-544): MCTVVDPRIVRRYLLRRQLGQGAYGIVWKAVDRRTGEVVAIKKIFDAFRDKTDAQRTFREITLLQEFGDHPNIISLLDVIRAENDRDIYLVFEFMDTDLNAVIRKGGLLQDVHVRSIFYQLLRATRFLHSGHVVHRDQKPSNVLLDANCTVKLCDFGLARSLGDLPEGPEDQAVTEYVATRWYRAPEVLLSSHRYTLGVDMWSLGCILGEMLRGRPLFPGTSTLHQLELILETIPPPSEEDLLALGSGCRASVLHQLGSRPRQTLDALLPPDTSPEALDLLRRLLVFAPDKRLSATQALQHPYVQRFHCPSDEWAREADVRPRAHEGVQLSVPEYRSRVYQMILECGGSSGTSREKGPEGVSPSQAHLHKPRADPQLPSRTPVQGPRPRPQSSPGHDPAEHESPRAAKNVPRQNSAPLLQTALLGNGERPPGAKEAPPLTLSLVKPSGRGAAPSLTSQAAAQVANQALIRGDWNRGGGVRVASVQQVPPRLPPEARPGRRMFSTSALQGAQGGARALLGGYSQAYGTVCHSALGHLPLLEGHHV

TEC = target: T5, TEC (Homo sapiens, UniProt P42680)
T5 sequence (P42680 1-631): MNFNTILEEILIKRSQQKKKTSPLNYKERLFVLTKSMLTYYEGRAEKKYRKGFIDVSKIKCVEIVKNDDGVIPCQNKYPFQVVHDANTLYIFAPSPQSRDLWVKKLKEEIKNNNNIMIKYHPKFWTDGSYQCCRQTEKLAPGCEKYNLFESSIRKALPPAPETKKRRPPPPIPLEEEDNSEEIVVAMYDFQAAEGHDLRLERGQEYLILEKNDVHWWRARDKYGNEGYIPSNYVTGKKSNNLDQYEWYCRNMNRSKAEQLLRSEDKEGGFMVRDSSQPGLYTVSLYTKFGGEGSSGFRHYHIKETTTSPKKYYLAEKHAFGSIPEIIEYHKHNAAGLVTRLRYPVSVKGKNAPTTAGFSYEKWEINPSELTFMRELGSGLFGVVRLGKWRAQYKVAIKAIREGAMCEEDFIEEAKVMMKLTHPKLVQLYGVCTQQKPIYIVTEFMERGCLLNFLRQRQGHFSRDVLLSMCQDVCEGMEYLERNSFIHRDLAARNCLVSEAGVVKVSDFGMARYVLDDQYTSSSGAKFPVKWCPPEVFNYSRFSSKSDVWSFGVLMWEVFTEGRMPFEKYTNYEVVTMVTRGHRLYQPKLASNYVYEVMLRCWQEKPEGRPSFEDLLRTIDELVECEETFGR

[1] = read-out: Niraparib (MK-4827) / %Ctrl @ 10000nM
[2] = read-out: Olaparib / %Ctrl @ 10000nM
[3] = read-out: Rucaparib / %Ctrl @ 10000nM, binding competition, % of control
[4] = read-out: Talazoparib (BMN 673) / %Ctrl @ 10000nM

T3 sequence (Q13164 whole entry): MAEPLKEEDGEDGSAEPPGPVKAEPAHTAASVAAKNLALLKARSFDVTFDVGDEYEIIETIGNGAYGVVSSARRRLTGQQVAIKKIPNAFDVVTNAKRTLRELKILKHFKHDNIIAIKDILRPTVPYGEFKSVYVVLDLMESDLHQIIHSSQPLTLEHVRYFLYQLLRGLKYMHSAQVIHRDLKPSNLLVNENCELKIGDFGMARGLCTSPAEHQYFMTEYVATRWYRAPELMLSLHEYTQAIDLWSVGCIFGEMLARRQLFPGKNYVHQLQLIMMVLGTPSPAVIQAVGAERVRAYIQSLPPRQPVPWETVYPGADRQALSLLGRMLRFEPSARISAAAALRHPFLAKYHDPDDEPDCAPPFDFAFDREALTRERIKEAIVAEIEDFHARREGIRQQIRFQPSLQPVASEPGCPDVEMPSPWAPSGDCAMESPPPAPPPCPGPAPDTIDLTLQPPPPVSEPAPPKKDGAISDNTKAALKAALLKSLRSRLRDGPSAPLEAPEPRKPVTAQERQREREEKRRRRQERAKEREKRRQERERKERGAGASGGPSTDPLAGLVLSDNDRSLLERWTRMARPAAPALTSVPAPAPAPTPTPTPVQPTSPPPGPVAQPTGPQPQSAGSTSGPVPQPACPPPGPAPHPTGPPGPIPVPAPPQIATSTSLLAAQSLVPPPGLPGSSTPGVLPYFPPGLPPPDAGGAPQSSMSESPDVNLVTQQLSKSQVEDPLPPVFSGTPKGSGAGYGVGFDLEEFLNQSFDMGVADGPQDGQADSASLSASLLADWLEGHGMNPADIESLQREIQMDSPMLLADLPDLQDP
ALK(C1156Y), sequence (Q9UM73 whole entry C1156Y): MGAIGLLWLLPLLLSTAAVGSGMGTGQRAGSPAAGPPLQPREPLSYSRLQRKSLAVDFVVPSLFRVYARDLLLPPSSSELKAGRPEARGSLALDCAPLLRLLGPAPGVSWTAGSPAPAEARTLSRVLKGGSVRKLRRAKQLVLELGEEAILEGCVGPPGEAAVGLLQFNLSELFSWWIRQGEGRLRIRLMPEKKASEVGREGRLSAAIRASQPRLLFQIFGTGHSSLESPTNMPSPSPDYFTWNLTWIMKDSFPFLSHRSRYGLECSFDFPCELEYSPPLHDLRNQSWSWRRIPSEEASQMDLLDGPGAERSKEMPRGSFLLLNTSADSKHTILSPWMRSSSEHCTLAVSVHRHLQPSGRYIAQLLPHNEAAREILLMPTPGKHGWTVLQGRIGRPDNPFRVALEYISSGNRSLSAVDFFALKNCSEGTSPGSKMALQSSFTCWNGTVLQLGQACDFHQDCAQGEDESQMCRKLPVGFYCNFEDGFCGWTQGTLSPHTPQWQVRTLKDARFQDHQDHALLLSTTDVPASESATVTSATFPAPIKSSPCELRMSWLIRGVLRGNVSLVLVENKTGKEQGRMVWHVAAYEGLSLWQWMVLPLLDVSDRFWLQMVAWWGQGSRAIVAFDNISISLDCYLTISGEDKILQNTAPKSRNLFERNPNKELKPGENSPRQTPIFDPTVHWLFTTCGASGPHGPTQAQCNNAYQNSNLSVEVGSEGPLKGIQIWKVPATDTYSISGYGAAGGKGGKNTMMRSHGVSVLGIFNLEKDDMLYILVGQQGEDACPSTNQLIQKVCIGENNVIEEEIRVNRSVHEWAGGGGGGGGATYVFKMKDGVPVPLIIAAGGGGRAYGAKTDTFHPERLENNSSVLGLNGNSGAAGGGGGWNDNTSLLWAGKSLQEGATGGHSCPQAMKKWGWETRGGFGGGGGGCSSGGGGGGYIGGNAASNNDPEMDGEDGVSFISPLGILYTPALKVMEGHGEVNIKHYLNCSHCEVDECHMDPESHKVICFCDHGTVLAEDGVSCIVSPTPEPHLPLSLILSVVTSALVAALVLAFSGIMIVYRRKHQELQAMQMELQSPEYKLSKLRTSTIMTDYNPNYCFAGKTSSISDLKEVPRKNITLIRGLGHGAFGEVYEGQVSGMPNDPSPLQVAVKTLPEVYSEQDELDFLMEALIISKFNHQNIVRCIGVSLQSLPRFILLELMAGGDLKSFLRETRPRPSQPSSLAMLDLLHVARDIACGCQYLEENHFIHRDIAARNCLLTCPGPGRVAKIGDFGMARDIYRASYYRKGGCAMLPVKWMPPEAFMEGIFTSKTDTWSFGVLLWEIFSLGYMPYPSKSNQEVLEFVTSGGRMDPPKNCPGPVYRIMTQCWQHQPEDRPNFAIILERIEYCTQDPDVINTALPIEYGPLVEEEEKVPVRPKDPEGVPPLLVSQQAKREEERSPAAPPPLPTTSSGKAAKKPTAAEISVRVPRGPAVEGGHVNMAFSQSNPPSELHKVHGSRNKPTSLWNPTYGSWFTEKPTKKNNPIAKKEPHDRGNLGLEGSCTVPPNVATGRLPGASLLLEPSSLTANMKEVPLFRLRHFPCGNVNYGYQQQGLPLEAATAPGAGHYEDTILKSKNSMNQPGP

NC(=O)c1cccc2cn(-c3ccc([C@@H]4CCCNC4)cc3)nc12 [Niraparib]
percent of control binding at 10 µM (ALK(C1156Y); [1]): 88% | percent of control binding at 10 µM (DRAK1; [1]): 26% | percent of control binding at 10 µM (DRAK2; [1]): 82% | percent of control binding at 10 µM (ERK5; [1]): 100% | percent of control binding at 10 µM (ERK8; [1]): 61% | percent of control binding at 10 µM (TEC; [1]): 76%

O=C(c1cc(Cc2n[nH]c(=O)c3ccccc23)ccc1F)N1CCN(C(=O)C2CC2)CC1 [Olaparib]
percent of control binding at 10 µM (ALK(C1156Y); [2]): 88% | percent of control binding at 10 µM (DRAK1; [2]): 95% | percent of control binding at 10 µM (DRAK2; [2]): 69% | percent of control binding at 10 µM (ERK5; [2]): 100% | percent of control binding at 10 µM (ERK8; [2]): 97% | percent of control binding at 10 µM (TEC; [2]): 100%

CNCc1ccc(-c2[nH]c3cc(F)cc4c3c2CCNC4=O)cc1 [Rucaparib]
percent of control binding at 10 µM (ALK(C1156Y); [3]): 43% | percent of control binding at 10 µM (DRAK1; [3]): 14% | percent of control binding at 10 µM (DRAK2; [3]): 98% | percent of control binding at 10 µM (ERK5; [3]): 100% | percent of control binding at 10 µM (ERK8; [3]): 86% | percent of control binding at 10 µM (TEC; [3]): 100%

Cn1ncnc1[C@H]1c2n[nH]c(=O)c3cc(F)cc(c23)N[C@@H]1c1ccc(F)cc1 [Talazoparib]
percent of control binding at 10 µM (ALK(C1156Y); [4]): 100% | percent of control binding at 10 µM (DRAK1; [4]): 100% | percent of control binding at 10 µM (DRAK2; [4]): 100% | percent of control binding at 10 µM (ERK5; [4]): 99% | percent of control binding at 10 µM (ERK8; [4]): 88% | percent of control binding at 10 µM (TEC; [4]): 92%
